The target in experiment [1] is T1, MAP4K4 (Homo sapiens, UniProt O95819).
T1 construct: DNA label for qPCR read-out (T7 phage fusion or DNA tag); purchased Eurofins DiscoverX Corporation; host or cells: T7 phage in E. coli (BL21-derived) or HEK-293
Description: KINOMEscan competition binding, MAP4K4. As to conditions: 10 µM compound; for remaining binding at 10 µM: lower = stronger binding, read-out: MAP4K4 %Ctrl @ 10000nM (POC). On the procedure: (§1) The KINOMEscan screening platform (Eurofins DiscoverX Corporation) was performed using active site-directed competition binding assay to quantitatively measure interactions between BK40143 and BK40197 and more than 450 human kinases and disease relevant mutant variants. […] Screening “hits” are identified by measuring the amount of kinase captured in test (BK40143 and BK40197) versus control samples by using a quantitative and ultra-sensitive qRT-PCR method that detects the associated DNA label. BK40143 and BK40197 were screened at 10 µM concentration, and results for primary screen binding interactions were reported as “% Ctrl” (POC), where lower numbers indicate stronger hits and calculated as follows: [test compound signal−positive control signal/negative control signal−positive control signal]×100
(§2) negative control = DMSO (100% Ctrl)
(§3) positive control = control compound (0% Ctrl)
(§4) Based on screening data from of profiled compounds, a proportional relationship between primary screening results and corresponding compound/target affinities can be described as binding constants (Kd values) for the indicated ranges of POC values with tighter binding (higher affinity) interactions associated with lower POC values and weaker binding (lower affinity) associated with higher POC values. Briefly, kinase-tagged T7 phage strains were grown in parallel in 24-well blocks in an E. coli host derived from the BL21 strain. E. coli were grown to log-phase and infected with T7 phage from a frozen stock (multiplicity of infection = 0.4) and incubated with shaking at 32°C until lysis (90–150 min). The lysates were centrifuged (6,000g) and filtered (0.2 μm) to remove cell debris. The remaining kinases were produced in HEK-293 cells and subsequently tagged with DNA for qRT-PCR detection. Streptavidin-coated magnetic beads were treated with biotinylated small molecule ligands for 30 min at RT to generate affinity resins for kinase assays. The liganded beads were blocked with excess biotin and washed with blocking buffer (1% BSA, 0.05% Tween 20, 1 mM DTT; SeaBlock [Pierce]) to remove unbound ligand and to reduce non-specific phage binding. Binding reactions were assembled by combining kinases, liganded affinity beads, and test compounds in 1x binding buffer (20% 0.17x PBS, 0.05% Tween 20, 6 mM DTT; SeaBlock). Test compounds were prepared as 100x stocks in 100% DMSO and directly diluted into the assay. All reactions were performed in polypropylene 384-well plates in a final volume of 0.02 ml. The assay plates were incubated at RT with shaking for 1 h and the affinity beads were washed with wash buffer (1x PBS, 0.05% Tween 20). […] The kinase concentration in the eluates was measured by qRT-PCR.

For experiment [2], the system named is amyloid-beta in TgAPP mice. Description: ELISA for amyloid-beta in brain lysates. The class given is in vivo, mouse. As to conditions: vs DMSO. On the procedure: All samples were analyzed in parallel using the same reagents. A total of 25 μl soluble protein was incubated overnight at 4°C with 25 μl of a mixed bead solution. After washing, samples were incubated with 25 μl detection antibody solution for 1.5 h at RT. Streptavidin–phycoerythrin (25 μl) was added to each well containing the 25 μl of detection antibody solution. Samples were then washed and suspended in 100 μl of sheath fluid. Samples were then run on MAGPIX with Xponent software. The median fluorescent intensity data were analyzed using a five-parameter logistic or spline curve-fitting method for calculating analyte concentrations in samples. Specific pTau ser396 (KHB7031; Invitrogen), aggregated Aβ (KHB3491; Thermo Fisher Scientific), and Aβ42 (KHB3442; Invitrogen) were performed according to manufacturer’s protocol on tissue soluble extracts from brain lysates in 1XSTEN buffer.
In general terms: ELISA stands for enzyme-linked immunosorbent assay.

The target of experiment [3] is T2, FLT3 (Homo sapiens, UniProt P36888).
T2 construct: DNA label for qPCR read-out (T7 phage fusion or DNA tag); purchased Eurofins DiscoverX Corporation; host or cells: T7 phage in E. coli (BL21-derived) or HEK-293
T2 sequence (P36888 27-993): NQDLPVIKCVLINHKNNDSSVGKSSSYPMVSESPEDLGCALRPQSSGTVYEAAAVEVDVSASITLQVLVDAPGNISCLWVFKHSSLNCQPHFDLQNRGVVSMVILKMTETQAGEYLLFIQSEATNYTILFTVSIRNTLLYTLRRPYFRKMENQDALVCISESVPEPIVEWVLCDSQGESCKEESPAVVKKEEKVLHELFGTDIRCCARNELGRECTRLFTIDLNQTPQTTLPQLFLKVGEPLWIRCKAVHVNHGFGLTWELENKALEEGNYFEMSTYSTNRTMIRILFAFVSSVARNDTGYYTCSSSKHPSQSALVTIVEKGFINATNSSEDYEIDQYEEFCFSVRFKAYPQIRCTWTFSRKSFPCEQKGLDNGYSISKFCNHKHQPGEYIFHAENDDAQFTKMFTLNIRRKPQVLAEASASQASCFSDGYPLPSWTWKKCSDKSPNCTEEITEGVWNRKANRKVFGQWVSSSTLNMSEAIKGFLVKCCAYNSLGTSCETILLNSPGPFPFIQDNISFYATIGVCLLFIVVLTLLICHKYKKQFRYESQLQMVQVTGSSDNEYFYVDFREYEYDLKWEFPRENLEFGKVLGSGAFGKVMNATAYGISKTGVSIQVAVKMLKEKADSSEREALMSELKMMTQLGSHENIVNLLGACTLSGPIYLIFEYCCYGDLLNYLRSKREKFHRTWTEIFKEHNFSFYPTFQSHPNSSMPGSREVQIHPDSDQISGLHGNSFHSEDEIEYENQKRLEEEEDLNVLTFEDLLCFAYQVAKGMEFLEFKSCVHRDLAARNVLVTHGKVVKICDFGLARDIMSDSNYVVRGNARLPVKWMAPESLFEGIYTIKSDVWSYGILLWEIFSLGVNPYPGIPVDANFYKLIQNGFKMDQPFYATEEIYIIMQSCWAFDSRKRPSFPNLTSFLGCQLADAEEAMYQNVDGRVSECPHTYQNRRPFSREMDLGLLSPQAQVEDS
Briefly: KINOMEscan competition binding, FLT3. As to conditions: 10 µM compound; for remaining binding at 10 µM: lower = stronger binding, read-out: FLT3 %Ctrl @ 10000nM (POC). On the procedure: as §1, §2, §3, §4

Experimental findings from article PMC11249953, “c-KIT inhibitors reduce pathology and improve behavior in the Tg(SwDI) model of Alzheimer’s disease” (Life Science Alliance, 2024) are described below.

T1 sequence (O95819 whole entry, the tested form may be a part): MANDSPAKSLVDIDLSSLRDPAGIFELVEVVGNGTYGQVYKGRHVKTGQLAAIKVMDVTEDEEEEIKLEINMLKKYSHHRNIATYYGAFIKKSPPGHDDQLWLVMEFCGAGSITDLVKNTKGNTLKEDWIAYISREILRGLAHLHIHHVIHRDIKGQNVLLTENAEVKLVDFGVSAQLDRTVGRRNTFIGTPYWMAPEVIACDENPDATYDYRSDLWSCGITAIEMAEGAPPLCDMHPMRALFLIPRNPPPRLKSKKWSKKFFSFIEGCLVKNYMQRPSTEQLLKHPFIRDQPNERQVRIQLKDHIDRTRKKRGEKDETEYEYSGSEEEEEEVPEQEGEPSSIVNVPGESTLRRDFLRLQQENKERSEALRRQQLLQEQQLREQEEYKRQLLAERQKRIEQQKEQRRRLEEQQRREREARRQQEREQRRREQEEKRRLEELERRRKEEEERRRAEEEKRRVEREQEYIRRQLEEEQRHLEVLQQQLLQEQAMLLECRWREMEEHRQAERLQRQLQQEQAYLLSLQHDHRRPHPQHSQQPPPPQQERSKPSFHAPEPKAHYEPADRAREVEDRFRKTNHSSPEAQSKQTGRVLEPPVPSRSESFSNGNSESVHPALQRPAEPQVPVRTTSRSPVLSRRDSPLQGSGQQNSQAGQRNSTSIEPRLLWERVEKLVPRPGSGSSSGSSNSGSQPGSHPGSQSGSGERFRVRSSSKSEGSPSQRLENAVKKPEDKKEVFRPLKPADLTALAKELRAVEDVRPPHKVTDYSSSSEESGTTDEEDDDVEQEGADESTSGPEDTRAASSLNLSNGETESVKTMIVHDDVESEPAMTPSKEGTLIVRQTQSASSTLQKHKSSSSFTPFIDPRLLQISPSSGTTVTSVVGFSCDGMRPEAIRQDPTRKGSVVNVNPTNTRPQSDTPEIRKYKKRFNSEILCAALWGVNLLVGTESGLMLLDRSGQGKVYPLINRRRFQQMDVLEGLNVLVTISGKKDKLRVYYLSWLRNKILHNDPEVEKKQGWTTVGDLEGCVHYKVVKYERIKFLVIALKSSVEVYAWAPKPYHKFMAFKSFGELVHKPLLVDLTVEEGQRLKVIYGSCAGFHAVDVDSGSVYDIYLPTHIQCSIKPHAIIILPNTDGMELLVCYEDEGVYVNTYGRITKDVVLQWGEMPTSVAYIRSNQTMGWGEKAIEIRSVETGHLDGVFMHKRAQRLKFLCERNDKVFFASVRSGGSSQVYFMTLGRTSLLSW

Regarding `Cc1cccc(-c2cc3nccc(Nc4ccccc4)c3s2)c1` [BK40143], in experiment [1], at 10 µM the inhibition was 93.2% and the remaining binding at 10 µM is 6.8%. The “Aβ concentration in brain lysate (ELISA)” value in experiment [2] is “significantly reduced Aβ and pTau (396) concentrations”. Besides, in experiment [3], the inhibition (in general, the share of the control response that was lost under treatment) at 10 µM was 95.3% and the remaining binding at 10 µM is 4.7%.

Consider `Cc1cccc(-c2cc3nccc(N4CCOCC4)c3s2)c1` [BK40197], for which, in experiment [1], the inhibition at 10 µM turned out to be 60% and the remaining binding at 10 µM stood at 40%. Moreover, the “Aβ concentration in brain lysate (ELISA)” value in experiment [2] was “significantly reduced Aβ and pTau (396) concentrations”. In experiment [3], the inhibition at 10 µM was found to be 89% and the remaining binding at 10 µM stood at 11%.
